The values that follow are results of earlier work, collected in article PMC6838683, “Discovery of Human Signaling Systems: Pairing Peptides to G Protein-Coupled Receptors” (Cell, 2019).

The test system of the data set is human GPCRs. Further details: method as in Guide to Pharmacology database. The note with it: cited from earlier work. The text has this:
Supplement mmc1.xlsx, sheet "HumanGPCRLigands" | column: pKi_value; pKd_value; pEC50_value; pIC50_value

Where [1] appears, read: receptor pacr_human (ADCYAP1R1, P41586), max reported value, ref Guide to Pharmacology database.
Where [2] appears, read: receptor vipr1_human (VIPR1, P32241), max reported value, ref Guide to Pharmacology database.
Where [3] appears, read: receptor vipr2_human (VIPR2, P41587), max reported value, ref Guide to Pharmacology database.
Setting [4] is: receptor OPRD1 (oprd_human, P41143), max reported value, ref Guide to Pharmacology database.
Setting [5] is: receptor OPRM1 (oprm_human, P35372), max reported value, ref Guide to Pharmacology database.
[6] abbreviates: receptor apj_human (APLNR, P35414), max reported value, ref Guide to Pharmacology database.
[7] abbreviates: receptor mrgx1_human (MRGPRX1), Class A orphans, max reported value, ref Guide to Pharmacology database.
The mark [8] stands for this setting: receptor OPRK1 (oprk_human, P41145), max reported value, ref Guide to Pharmacology database.
[9] abbreviates: receptor gipr_human (GIPR, P48546), max reported value, ref Guide to Pharmacology database.
[10] abbreviates: receptor ghsr_human (GHSR, Q92847), max reported value, ref Guide to Pharmacology database.
Where [11] appears, read: receptor glp1r_human (GLP1R, P43220), max reported value, ref Guide to Pharmacology database.
The mark [12] stands for this setting: receptor glp2r_human (GLP2R, O95838), max reported value, ref Guide to Pharmacology database.
Setting [13] is: receptor kissr_human (KISS1R, Q969F8), max reported value, ref Guide to Pharmacology database.
Setting [14] is: receptor nmur1_human (NMUR1, Q9HB89), max reported value, ref Guide to Pharmacology database.
Setting [15] is: receptor nmur2_human (NMUR2, Q9GZQ4), max reported value, ref Guide to Pharmacology database.
Where [16] appears, read: receptor npbw2_human (NPBWR2, P48146), max reported value, ref Guide to Pharmacology database.
Setting [17] is: receptor npbw1_human (NPBWR1, P48145), max reported value, ref Guide to Pharmacology database.
[18] abbreviates: receptor NPY4R (npy4r_human, P50391), max reported value, ref Guide to Pharmacology database.
[19] abbreviates: receptor NPY5R (npy5r_human, Q15761), max reported value, ref Guide to Pharmacology database.
Setting [20] is: receptor OPRL1 (oprx_human, P41146), max reported value, ref Guide to Pharmacology database.

Where two headings read alike, the source gives them in different places. No end group written: not given here.

VIP: under setting [1], the pEC50_value is recorded as 7.8, the pIC50_value is 6 and the pKi_value is 6.3. For the same substance, under setting [2], the pEC50_value is given as 7.9, the pIC50_value is reported as 8 and the pKi_value is on record as 9. In addition, under setting [3], the pEC50_value is on record as 7.3, the pIC50_value is given as 8.3 and the pKi_value was 8.7.
Take [Leu]enkephalin: the pKi_value is 8.7 under setting [4] and 8.1 under setting [5].
As for “amylin (KCNTATCATQRLANFLVHSSNNFGAILSSTNVGSNTY; not fully specified; cysteine pairing not given here; UniProt P10997 34-70, looked up)”, for the setting “receptor calcr_human (CALCR), Calcitonin receptors, Class B1 (Secretin), max reported value, ref Guide to Pharmacology database”, the pEC50_value was 9.2.
With angiotensin II (DRVYIHPF), the pIC50_value (receptor agtr1_human (AGTR1, P30556), max reported value, ref Guide to Pharmacology database) is reported as 9.3. Under “receptor agtr2_human (AGTR2, P50052), max reported value, ref Guide to Pharmacology database”, the pKd_value is 10.2.
For apelin-13, the pIC50_value is given as 9.5.
Consider apelin-17, for which the pIC50_value under setting [6] is recorded as 9.
Regarding “apelin-36 (LVQPRGSRNGPGPWQGGRRKFRRQRPRLSHKGPMPF; not fully specified; UniProt Q9ULZ1 42-77, looked up)”, the pIC50_value under setting [6] was 8.6.
Take bovine adrenal medulla peptide 8-22: under setting [7], the pEC50_value is 7.8, the pKd_value is given as 8 and the pKi_value is reported as 7.7.
Take calcitonin: the pEC50_value (receptor calcr_human (CALCR, P30988), Calcitonin receptors, max reported value, ref Guide to Pharmacology database) is 11.2.
With corticotrophin-releasing hormone, the pKd_value (receptor crfr1_human (CRHR1, P34998), max reported value, ref Guide to Pharmacology database) is 9 and the pKd_value (receptor crfr2_human (CRHR2, Q13324), max reported value, ref Guide to Pharmacology database) was 7.4.
Turning to dynorphin A, the pKi_value runs as follows: under setting [4], 7.4; under setting [8], 10.8; under setting [5], 8.1.
Consider dynorphin A-(1-8), for which the pKi_value is listed as 8.4 under setting [4], 9.9 under setting [8] and 8.4 under setting [5].
On to dynorphin A-(1-13), for which the pKi_value reads like this: under setting [4], 7.8; under setting [8], 10.7; under setting [5], 8.3.
On to “endothelin-2 (CSCSSWLDKECVYFCHLDIIW; ends and bridges not checked; cysteine pairing not given here; UniProt P20800 49-69, looked up)”, for which, where the note is “receptor ednra_human (EDNRA, P25101), max reported value, ref Guide to Pharmacology database”, the pIC50_value is given as 8.2.
As for endothelin-3, the pKd_value (receptor ednrb_human (EDNRB, P24530), max reported value, ref Guide to Pharmacology database) is 11.5.
As for “galanin-like peptide (APAHRGRGGWTLNSAGYLLGPVLHLPQMGDQDGKRETALEILDLWKAIDGLPYSHPPQPS; not fully specified; UniProt Q9UBC7 25-84, looked up)”, the pIC50_value (receptor galr1_human (GALR1, P47211), max reported value, ref Guide to Pharmacology database) was 7.1; the pIC50_value (receptor galr2_human (GALR2, O43603), max reported value, ref Guide to Pharmacology database) is reported as 7.7; the pIC50_value (receptor galr3_human (GALR3, O60755), max reported value, ref Guide to Pharmacology database) is recorded as 8.
With gastric inhibitory polypeptide, under setting [9], the pKd_value was 8.7 and the pKi_value is recorded as 9.1.
As to “ghrelin (GSSFLSPEHQRVQQRKESKKPPAKLQPR; not fully specified; ends and bridges not checked; UniProt Q9UBU3 24-51, looked up)”, under setting [10], the pEC50_value is on record as 7.5, the pKd_value is listed as 9.4 and the pKi_value was 8.1.
As for glucagon, under setting [11], the pKi_value is 7. The pEC50_value (receptor glr_human (GCGR, P47871), max reported value, ref Guide to Pharmacology database) is recorded as 9.
For the substance glucagon-like peptide 1-(7-36) amide, under setting [11], the pKi_value is on record as 9.2.
For glucagon-like peptide 2, under setting [12], the pIC50_value is recorded as 8.5.
On to “glucagon-like peptide 2-(3-33) (DGSFSDEMNTILDNLAARDFINWLIQTKITD; Glucagon-like peptide 2; UniProt P01275 148-178, looked up, fragment)”, for which the pIC50_value under setting [12] is 7.4.
Regarding humanin, under “receptor fpr3_human (FPR3, P25089), max reported value, ref Guide to Pharmacology database”, the pEC50_value is 8.9.
With kallidin, the pKi_value (receptor bkrb1_human (BDKRB1, P46663), max reported value, ref Guide to Pharmacology database) is 8.9. Moreover, for the setting “receptor bkrb2_human (BDKRB2, P30411), max reported value, ref Guide to Pharmacology database”, the pIC50_value was 9.3.
As for “kisspeptin-13 (LPNYNWNSFGLRF; not fully specified; ends and bridges not checked; UniProt Q15726 109-121, looked up)”, the pKi_value under setting [13] was 8.4.
As to “kisspeptin-14 (DLPNYNWNSFGLRF; not fully specified; ends and bridges not checked; UniProt Q15726 108-121, looked up)”, the pKi_value under setting [13] is 8.8.
Turning to “kisspeptin-54 (GTSLSPPPESSGSPQQPGLSAPHSRQIPAPQGAVLVQREKDLPNYNWNSFGLRF; ends and bridges not checked; UniProt Q15726 68-121, looked up)”, the pKi_value under setting [13] was 9.5.
On to lysophosphatidylinositol, for which the pEC50_value (receptor GPR55 (gpr55_human, Q9Y2T6), max reported value, ref Guide to Pharmacology database) is 7.3.
As for melanin-concentrating hormone, the pKi_value (receptor mchr1_human (MCHR1, Q99705), max reported value, ref Guide to Pharmacology database) is on record as 10.5. For the same substance, the pIC50_value (receptor mchr2_human (MCHR2, Q969V1), max reported value, ref Guide to Pharmacology database) was 9.2.
On to “neuromedin S-33 (ILQRGSGTAAVDFTKKDHTATWGRPFFLFRPRN; not fully specified; ends and bridges not checked; UniProt Q5H8A3 109-141, looked up)”, for which, under setting [14], the pEC50_value is reported as 10.2 and the pIC50_value is listed as 10. Also, under setting [15], the pEC50_value is 10 and the pIC50_value is given as 9.2.
On to “neuromedin U-25 (FRVDEEFQSPFASQSRGYFLFRPRN-NH2)”, for which, under setting [14], the pEC50_value is listed as 9.4 and the pKi_value was 9.5. Under setting [15], the pEC50_value was 9.4 and the pKi_value is recorded as 9.6.
“neuropeptide B-23 (WYKPAAGHSSYSVGRAAGLLSGL)”: the pIC50_value under setting [16] was 8.4.
With “neuropeptide B-29 (WYKPAAGHSSYSVGRAAGLLSGLRRSPYA; not fully specified; UniProt Q8NG41 25-53, looked up)”, the pIC50_value is reported as 9 (receptor NPBWR2 (npbw2_human, P48146), max reported value, ref Guide to Pharmacology database) and 9.5 under setting [17].
As for neuropeptide FF, the pKi_value runs as follows: (receptor npff1_human (NPFFR1, Q9GZQ6), max reported value, ref Guide to Pharmacology database) 9.9; (receptor npff2_human (NPFFR2, Q9Y5X5), max reported value, ref Guide to Pharmacology database) 9.7.
In the case of “neuropeptide W-23 (WYKHVASPRYHTVGRAAGLLMGL)”, the pIC50_value by setting is: under setting [17], 10; under setting [16], 9.6.
With “neuropeptide W-30 (WYKHVASPRYHTVGRAAGLLMGLRRSPYLW; not fully specified; UniProt Q8N729 33-62, looked up)”, the pIC50_value by setting is: under setting [17], 10.6; under setting [16], 9.4.
Consider neuropeptide Y, for which the pKi_value by setting is: under setting [18], 8; under setting [19], 9.1.
Consider nociceptin/orphanin FQ, for which, under setting [20], the pEC50_value is 9.8 and the pKi_value is 10.4.
For the substance “orexin-A (QPLPDCCRQKTCSCRLYELLHGAGNHAAGILTL; not fully specified; ends and bridges not checked; UniProt O43612 34-66, looked up)”, the pEC50_value reads like this: (receptor HCRTR1 (ox1r_human, O43613), max reported value, ref Guide to Pharmacology database) 10.2; (receptor HCRTR2 (ox2r_human, O43614), max reported value, ref Guide to Pharmacology database) 10.
For pancreatic polypeptide, the pKi_value reads like this: under setting [18], 10.9; under setting [19], 8.
